In ChEMBL document CHEMBL1177750, “Cellular localization of clathridimine, an antimicrobial 2-aminoimidazole alkaloid produced by the Mediterranean calcareous sponge Clathrina clathrus” (2010):

How the values were obtained:
Format in all cases: functional
Escherichia coli = test: Antimicrobial activity against Escherichia coli ATCC 8739 at 100 ug/well after 24 hrs at 37 degC by agar diffusion assay; settings: ATCC 8739, 24 h, read-out: DIZ
Staphylococcus aureus = test: Antimicrobial activity against Staphylococcus aureus ATCC 6538 at 100 ug/well after 24 hrs at 37 degC by agar diffusion assay; settings: ATCC 6538, 24 h, read-out: DIZ
Candida albicans = test: Antimicrobial activity against Candida albicans ATCC 66029 at 100 ug/well after 24 hrs at 30 degC by agar diffusion assay; settings: ATCC 66029, 24 h, read-out: DIZ

| Compound | zone of inhibition at 100 µg/disc (Escherichia coli) | zone of inhibition at 100 µg/disc (Staphylococcus aureus) | zone of inhibition at 100 µg/disc (Candida albicans) |
| --- | --- | --- | --- |
| CN1C(=N)N=C(Nc2nc(Cc3ccc4c(c3)OCO4)cn2C)C1=O [CLATHRIDIMINE] | 15 mm | 0 mm | 24 mm |
| CN1C(=O)N=C(Nc2nc(Cc3ccc4c(c3)OCO4)cn2C)C1=O [CLATHRIDINE] | 0 mm | 0 mm | 18 mm |
| CCC(C)n1ncn(-c2ccc(N3CCN(c4ccc(OCC5COC(Cn6cncn6)(c6ccc(Cl)cc6Cl)O5)cc4)CC3)cc2)c1=O (centres undefined) [ITRACONAZOLE] |  |  | 21 mm |
| NC[C@H]1O[C@H](O[C@H]2[C@H](O)[C@@H](O[C@H]3O[C@H](CO)[C@@H](O)[C@H](N)[C@H]3O)[C@H](N)C[C@@H]2N)[C@H](O)[C@@H](O)[C@@H]1O [KANAMYCIN] | 38 mm | 37 mm |  |
